Values quoted from earlier work as cited in patent US20130085177A1, “COSMETIC COMPOSITION BASED ON ELLAGIC ACID OR A DERIVATIVE THEREOF AND ON A PARTICULAR MIXTURE OF SURFACTANTS” (priority 2010, published 2013).

solubility in water and in the solvents and oils commonly used in cosmetic compositions: very low
Compound: O=c1oc2c(O)c(O)cc3c(=O)oc4c(O)c(O)cc1c4c23 [ellagic acid, 2,3,7,8-tetrahydroxy(1)benzo-pyrano(5,4,3-cde)(1)benzopyran-5,10-dione]
